Results from paper PMC6269914, “In Vitro Evaluation of Novel Inhibitors against the NS2B-NS3 Protease of Dengue Fever Virus Type 4” (Molecules, 2013).

The compounds below were run against DENV4 NS2B-NS3pro (Dengue virus type 4, UniProt Q2YHF0, DELINS1442-1474GGGGSGGGG) (assay: In vitro inhibition assay of recombinant NS2B-NS3pro with fluorogenic AMC peptide substrate). Conditions: inhibition activity at 100 μM, 1.65 µM AMC peptide substrate; Table 2.
Assay type: biochemical, dengue virus type 4 (DENV4)

Sequence of DENV4 NS2B-NS3pro (Q2YHF0 1475-1660, added parts left off, stated change not applied): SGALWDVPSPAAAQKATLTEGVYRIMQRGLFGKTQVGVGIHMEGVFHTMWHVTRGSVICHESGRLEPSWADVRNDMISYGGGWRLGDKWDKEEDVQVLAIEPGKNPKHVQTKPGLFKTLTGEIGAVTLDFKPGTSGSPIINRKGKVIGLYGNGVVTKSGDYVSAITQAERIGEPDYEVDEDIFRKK

Compound	Inhibition
Cc1nnc2c(Nc3cccc(C(=O)O)c3)nc3ccc(C(=O)c4ccccc4)cc3n12 [Compound 5, 3-((8-benzoyl-1-methyl-[1,2,4]triazolo[4,3-a]quinoxalin-4-yl)amino)benzoic acid]	58.8%
O=S(=O)(c1ccc(-c2csc(N3N=C(c4cccs4)CC3c3ccc(F)cc3)n2)cc1)N1CCCCC1 (stereo not drawn) [Compound 12, 2-(5-(4-fluorophenyl)-3-(thiophen-2-yl)-4,5-dihydro-1H-pyrazol-1-yl)-4-(4-(piperidin-1-ylsulfonyl)phenyl)thiazole]	85.2%
O=C(O)CCCNc1cc(N2CCCCCC2)c2noc3c2c1C(=O)c1ccccc1-3 [Compound 27, 4-((3-(azepan-1-yl)-6-oxo-6H-anthra[1,9-cd]isoxazol-5-yl)amino)butanoic acid]	82.5%
O=C(NCCN1CCCCC1)c1cccc(Nc2ccc(-c3cccc(F)c3)nn2)c1 [Compound 29, 3-((6-(3-fluorophenyl)pyridazin-3-yl)amino)-N-(2-(piperidin-1-yl)ethyl)benzamide]	66.6%

Same assay, conditions: primary inhibition assay at a 100 μM concentration of inhibitors; Table S1

Compound	Inhibition Activity
1-(4-(2,5-dimethylphenyl)piperazin-1-yl)-4-(10-methylbis([1,2,4]triazolo)[4,3-a:1',5'-c]quinazolin-3-yl)butan-1-one [Compound 3]	2.61%
1-(5-(4-(4-(5-chloro-2-methylphenyl)piperazine-1-carbonyl)piperidin-1-yl)-1,3,4-thiadiazol-2-yl)pyrrolidin-2-one [Compound 18]	0.15%
2-(1-isobutyl-5,5-dimethyl-3-(naphthalen-1-yl)-2-oxoimidazolidin-4-yl)-4-(naphthalen-1-yl)-1,2,4-oxadiazolidine-3,5-dione [Compound 16]	33.28%
2-(3-fluorophenyl)-7-((2-(3-fluorophenyl)-4-oxo-4H-benzo[d][1,3]oxazin-6-yl)methyl)-4H-benzo[d][1,3]oxazin-4-one [Compound 36]	34.33%
2-((4aR,5R,5aR,8aR,9S)-2,6,8-trioxo-3,10-diphenyl-2,3,4a,5,5a,6,8a,9,9a,10-decahydro-5,9-methanothiazolo[5',4':5,6]thiopyrano[2,3-f]isoindol-7(8H)-yl)acetic acid [Compound 34]	39.67%
3,3'-(ethane-1,2-diyl)bis(2-(((7-chloro-4-oxo-4H-pyrido[1,2-a]pyrimidin-2-yl)methyl)thio)quinazolin-4(3H)-one) [Compound 35]	48.66%
3-(((1-methyl-1H-tetrazol-5-yl)thio)methyl)-7-(2-(5-methyl-4-nitro-1H-pyrazol-1-yl)acetamido)-8-oxo-5-thia-1-azabicyclo[4.2.0]oct-2-ene-2-carboxylic acid [Compound 17]	23.01%
4-(2,6-bis(3-hydroxyphenyl)-1,3,5,7-tetraoxo-1,2,3,5,6,7-hexahydropyrrolo[3,4-f]isoindole-4-carbonyl)benzoic acid [Compound 1]	15.05%
4-((4aR,5R,5aR,8aR,9S)-10-(4-(tert-butyl)phenyl)-2,6,8-trioxo-2,3,4a,5,5a,6,8a,9,9a,10-decahydro-5,9-methanothiazolo[5',4':5,6]thiopyrano[2,3-f]isoindol-7(8H)-yl)butanoic acid [Compound 11]	12.46%
5-(5,6-dibromo-1,3-dioxohexahydro-1H-4,7-methanoisoindol-2(3H)-yl)-2-morpholinobenzoic acid [Compound 13]	5.55%
O=C1c2ccc(-n3c(=O)c4cc5c(=O)n(-c6ccc7c(c6)C(=O)N(c6ccccc6)C7=O)c(=O)c5cc4c3=O)cc2C(=O)N1c1ccccc1 [Compound 4, 2,6-bis(1,3-dioxo-2-phenylisoindolin-5-yl)pyrrolo[3,4-f]isoindole-1,3,5,7(2H,6H)-tetraone]	4.64%
Cc1nnc2c(Nc3cccc(C(=O)O)c3)nc3ccc(C(=O)c4ccccc4)cc3n12 [Compound 5, 3-((8-benzoyl-1-methyl-[1,2,4]triazolo[4,3-a]quinoxalin-4-yl)amino)benzoic acid]	58.83%
O=C(Nc1ccc(Br)cc1C(=O)c1ccccc1)c1cccc(Nc2nc(-c3ccccc3)c3cc(Br)ccc3n2)c1 [Compound 7, N-(2-benzoyl-4-bromophenyl)-3-((6-bromo-4-phenylquinazolin-2-yl)amino)benzamide]	21.31%
COc1cccc(-n2nc(C(=O)NC3CCCCCC3)c3ccccc3c2=O)c1 [Compound 9, N-cycloheptyl-3-(3-methoxyphenyl)-4-oxo-3,4-dihydrophthalazine-1-carboxamide]	23.33%
Cc1nc2sc(C(=O)c3ccc(-c4ccc(C(=O)c5sc6nc(C)c(C)c(C)c6c5N)cc4)cc3)c(N)c2c(C)c1C [Compound 10, [1,1'-biphenyl]-4,4'-diylbis((3-amino-4,5,6-trimethylthieno[2,3-b]pyridin-2-yl)methanone)]	7.59%
O=S(=O)(c1ccc(-c2csc(N3N=C(c4cccs4)CC3c3ccc(F)cc3)n2)cc1)N1CCCCC1 (stereo not drawn) [Compound 12, 2-(5-(4-fluorophenyl)-3-(thiophen-2-yl)-4,5-dihydro-1H-pyrazol-1-yl)-4-(4-(piperidin-1-ylsulfonyl)phenyl)thiazole]	85.17%
Cc1cccc(-c2nc3nc(C)cc(Nc4ccc(CC(=O)O)cc4)n3n2)c1 [Compound 15, 2-(4-((5-methyl-2-(m-tolyl)-[1,2,4]triazolo[1,5-a]pyrimidin-7-yl)amino)phenyl)acetic acid]	17.36%
COC(=O)CSc1ncn(-c2nc(N3CCCCC3)nc(N3CCCCC3)n2)n1 [Compound 19, methyl 2-((1-(4,6-di(piperidin-1-yl)-1,3,5-triazin-2-yl)-1H-1,2,4-triazol-3-yl)thio)acetate]	10.28%
O=C1c2ccccc2C(=O)N1c1cccc(-c2csc(N3N=C(c4ccccc4)CC3c3ccccc3)n2)c1 (stereo not drawn) [Compound 21, 2-(3-(2-(3,5-diphenyl-4,5-dihydro-1H-pyrazol-1-yl)thiazol-4-yl)phenyl)isoindoline-1,3-dione]	21.27%
Cc1nn(-c2ccccc2)c2c1nc(CCC(=O)NCCN1CCN(C)CC1)c(=O)n2C [Compound 24, 3-(3,7-dimethyl-6-oxo-1-phenyl-6,7-dihydro-1H-pyrazolo[3,4-b]pyrazin-5-yl)-N-(2-(4-methylpiperazin-1-yl)ethyl)propanamide]	29.46%
Nc1nonc1-c1nc2ccccc2n1Cc1ccc(Cn2c(-c3nonc3N)nc3ccccc32)cc1 [Compound 25, 4,4'-(1,1'-(1,4-phenylenebis(methylene))bis(1H-benzo[d]imidazole-2,1-diyl))bis(1,2,5-oxadiazol-3-amine)]	36.45%
O=C(O)CCCNc1cc(N2CCCCCC2)c2noc3c2c1C(=O)c1ccccc1-3 [Compound 27, 4-((3-(azepan-1-yl)-6-oxo-6H-anthra[1,9-cd]isoxazol-5-yl)amino)butanoic acid]	82.53%
O=C(NCCN1CCCCC1)c1cccc(Nc2ccc(-c3cccc(F)c3)nn2)c1 [Compound 29, 3-((6-(3-fluorophenyl)pyridazin-3-yl)amino)-N-(2-(piperidin-1-yl)ethyl)benzamide]	66.55%
C(=C\CSc1nnc(-c2ccccc2)c(-c2ccccc2)n1)/CSc1nnc(-c2ccccc2)c(-c2ccccc2)n1 [Compound 33, (E)-1,4-bis((5,6-diphenyl-1,2,4-triazin-3-yl)thio)but-2-ene]	40.52%
(5,7-dimethyl-6-(3-methylbenzyl)pyrazolo[1,5-a]pyrimidin-3-yl)(4-(2,5-dimethylphenyl)piperazin-1-yl)methanone [Compound 6]	8.61%
N2,N2-dimethyl-6-(((4-methyl-5-((2-methyl-5-nitro-1H-imidazol-1-yl)methyl)-4H-1,2,4-triazol-3-yl)thio)methyl)-1,3,5-triazine-2,4-diamine [Compound 31]	6.49%
